Results: BigSolDB 2.1

[1] = in 1,2-dichloroethane, 287.65 K
[2] = in 1,2-dichloroethane, 324.25 K
[3] = in 1,2-dichloroethane, 329.55 K
[4] = in 1,2-dichloroethane, 333.75 K

Which results are given for `COc1cccc(Nc2ccccc2)c1`?
solubility (mole fraction) [1]: 0.149; solubility (mole fraction) (in 1,2-dichloroethane, 292.3 K): 0.182; solubility (mole fraction) (in 1,2-dichloroethane, 297.35 K): 0.216; solubility (mole fraction) (in 1,2-dichloroethane, 302.55 K): 0.258; solubility (mole fraction) (in 1,2-dichloroethane, 308.65 K): 0.312; solubility (mole fraction) (in 1,2-dichloroethane, 313.15 K): 0.355; solubility (mole fraction) (in 1,2-dichloroethane, 318.85 K): 0.401; solubility (mole fraction) [2]: 0.443; solubility (mole fraction) [3]: 0.502; solubility (mole fraction) [4]: 0.545; solubility (mole fraction) (in acetone, 287.25 K): 0.237; solubility (mole fraction) (in acetone, 292.85 K): 0.264; solubility (mole fraction) (in acetone, 298.95 K): 0.3; solubility (mole fraction) (in acetone, 303.05 K): 0.327; solubility (mole fraction) (in acetone, 308.15 K): 0.361; solubility (mole fraction) (in acetone, 313.05 K): 0.407; solubility (mole fraction) (in acetone, 317.55 K): 0.456; solubility (mole fraction) (in acetone, 321.75 K): 0.513; solubility (mole fraction) (in chloroform, 290.25 K): 0.181; solubility (mole fraction) (in chloroform, 295.25 K): 0.218; solubility (mole fraction) (in chloroform, 300.55 K): 0.258; solubility (mole fraction) (in chloroform, 306.15 K): 0.308; solubility (mole fraction) (in chloroform, 311.5 K): 0.35; solubility (mole fraction) (in chloroform, 315.5 K): 0.386; solubility (mole fraction) (in chloroform, 319.8 K): 0.424; solubility (mole fraction) (in chloroform, 323.13 K): 0.456; solubility (mole fraction) (in ethyl acetate, 287.15 K): 0.195; solubility (mole fraction) (in ethyl acetate, 291.05 K): 0.225; solubility (mole fraction) (in ethyl acetate, 295.55 K): 0.254; solubility (mole fraction) (in ethyl acetate, 300.18 K): 0.283; solubility (mole fraction) (in ethyl acetate, 306.35 K): 0.329; solubility (mole fraction) (in ethyl acetate, 311.25 K): 0.366; solubility (mole fraction) (in ethyl acetate, 316.25 K): 0.407; solubility (mole fraction) (in ethyl acetate, 321.35 K): 0.442; solubility (mole fraction) (in ethyl acetate, 326.25 K): 0.5; solubility (mole fraction) (in ethyl acetate, 330.15 K): 0.543; solubility (mole fraction) (in methanol, 287.25 K): 0.0134; solubility (mole fraction) (in methanol, 291.95 K): 0.0174; solubility (mole fraction) (in methanol, 296.65 K): 0.0214; solubility (mole fraction) (in methanol, 301.15 K): 0.0268; solubility (mole fraction) (in methanol, 305.35 K): 0.0339; solubility (mole fraction) (in methanol, 311.85 K): 0.0478; solubility (mole fraction) (in methanol, 316.25 K): 0.0579; solubility (mole fraction) (in methanol, 321.25 K): 0.0724; solubility (mole fraction) (in methanol, 327.15 K): 0.0972

With `CSc1cccc(Nc2ccccc2)c1` as the compound, how does the solubility (mole fraction) [1] read?
The solubility (mole fraction) was 0.189.

What about the solubility (mole fraction) (in 1,2-dichloroethane, 292.3 K) of the same compound?
The solubility (mole fraction) was 0.231.

And the solubility (mole fraction) (in 1,2-dichloroethane, 296.85 K)?
Its solubility (mole fraction) is 0.278.

And the solubility (mole fraction) (in 1,2-dichloroethane, 300.95 K)?
Its solubility (mole fraction) is 0.311.

What about the solubility (mole fraction) (in 1,2-dichloroethane, 305.35 K) of the same compound?
Its solubility (mole fraction) is 0.36.

What about the solubility (mole fraction) (in 1,2-dichloroethane, 310.45 K) of the same compound?
The solubility (mole fraction) was 0.415.

And the solubility (mole fraction) (in 1,2-dichloroethane, 315.15 K)?
The solubility (mole fraction) was 0.466.

And the solubility (mole fraction) (in 1,2-dichloroethane, 319.75 K)?
Its solubility (mole fraction) is 0.515.

And the solubility (mole fraction) [2]?
Its solubility (mole fraction) is 0.562.

What about the solubility (mole fraction) [3] of the same compound?
Its solubility (mole fraction) is 0.615.

And the solubility (mole fraction) [4]?
The solubility (mole fraction) was 0.654.

What about the solubility (mole fraction) (in acetone, 287.45 K) of the same compound?
The solubility (mole fraction) was 0.254.

What about the solubility (mole fraction) (in acetone, 292.55 K) of the same compound?
Its solubility (mole fraction) is 0.306.

And the solubility (mole fraction) (in acetone, 296.15 K)?
The solubility (mole fraction) was 0.343.

And the solubility (mole fraction) (in acetone, 300.35 K)?
Its solubility (mole fraction) is 0.381.

What about the solubility (mole fraction) (in acetone, 305.45 K) of the same compound?
Its solubility (mole fraction) is 0.438.

What about the solubility (mole fraction) (in acetone, 310.65 K) of the same compound?
The solubility (mole fraction) was 0.5.

And the solubility (mole fraction) (in acetone, 315.15 K)?
Its solubility (mole fraction) is 0.551.

What about the solubility (mole fraction) (in acetone, 321.75 K) of the same compound?
Its solubility (mole fraction) is 0.643.

What about the solubility (mole fraction) (in chloroform, 288.85 K) of the same compound?
The solubility (mole fraction) was 0.226.

And the solubility (mole fraction) (in chloroform, 293.35 K)?
Its solubility (mole fraction) is 0.263.

And the solubility (mole fraction) (in chloroform, 297.05 K)?
The solubility (mole fraction) was 0.296.

What about the solubility (mole fraction) (in chloroform, 302 K) of the same compound?
The solubility (mole fraction) was 0.338.

What about the solubility (mole fraction) (in chloroform, 307.55 K) of the same compound?
The solubility (mole fraction) was 0.391.

And the solubility (mole fraction) (in chloroform, 313.25 K)?
The solubility (mole fraction) was 0.449.

What about the solubility (mole fraction) (in chloroform, 318.75 K) of the same compound?
Its solubility (mole fraction) is 0.511.

What about the solubility (mole fraction) (in chloroform, 323.13 K) of the same compound?
Its solubility (mole fraction) is 0.557.

And the solubility (mole fraction) (in ethyl acetate, 287.85 K)?
The solubility (mole fraction) was 0.231.

And the solubility (mole fraction) (in ethyl acetate, 292.95 K)?
Its solubility (mole fraction) is 0.281.

What about the solubility (mole fraction) (in ethyl acetate, 297.25 K) of the same compound?
The solubility (mole fraction) was 0.311.

And the solubility (mole fraction) (in ethyl acetate, 302.15 K)?
The solubility (mole fraction) was 0.357.

And the solubility (mole fraction) (in ethyl acetate, 306.65 K)?
The solubility (mole fraction) was 0.403.

And the solubility (mole fraction) (in ethyl acetate, 311.25 K)?
The solubility (mole fraction) was 0.452.

What about the solubility (mole fraction) (in ethyl acetate, 316.45 K) of the same compound?
Its solubility (mole fraction) is 0.516.

And the solubility (mole fraction) (in ethyl acetate, 321.35 K)?
The solubility (mole fraction) was 0.573.

And the solubility (mole fraction) (in ethyl acetate, 325.85 K)?
The solubility (mole fraction) was 0.643.

What about the solubility (mole fraction) (in ethyl acetate, 330.15 K) of the same compound?
The solubility (mole fraction) was 0.711.

What about the solubility (mole fraction) (in methanol, 287.65 K) of the same compound?
The solubility (mole fraction) was 0.0115.

And the solubility (mole fraction) (in methanol, 291.55 K)?
Its solubility (mole fraction) is 0.016.

And the solubility (mole fraction) (in methanol, 297.15 K)?
The solubility (mole fraction) was 0.0235.

What about the solubility (mole fraction) (in methanol, 302.4 K) of the same compound?
Its solubility (mole fraction) is 0.0342.

What about the solubility (mole fraction) (in methanol, 307.25 K) of the same compound?
The solubility (mole fraction) was 0.046.

And the solubility (mole fraction) (in methanol, 311.95 K)?
Its solubility (mole fraction) is 0.0608.

And the solubility (mole fraction) (in methanol, 316.35 K)?
The solubility (mole fraction) was 0.0761.

What about the solubility (mole fraction) (in methanol, 321.25 K) of the same compound?
The solubility (mole fraction) was 0.0951.

What about the solubility (mole fraction) (in methanol, 327.15 K) of the same compound?
Its solubility (mole fraction) is 0.121.
